# Literature values as cited in patent publication US20140328795A1, “VIRUCIDAL SMALL MOLECULE AND USES THEREOF” (The Texas A&M University System, priority 2012, published 2014).
# System: HIV
# Conditions: VOICE trial among African women; cited from earlier work
smiles,measurement,value
C[C@H](Cn1cnc2c(N)ncnc21)OCP(=O)(O)O [tenofovir],protection against HIV,failed to provide protection against HIV
